ChEMBL document CHEMBL6078616, “Seven-membered N-heterocycles as approved drugs and promising leads in medicinal chemistry as well as the metal-free domino access to their scaffolds” (Eur J Med Chem, 2024)

Tests used:
[1] = molecular target: T1, Histone deacetylase 7 (Homo sapiens, UniProt Q8WUI4); experiment: Inhibition of HDAC7 (unknown origin)
T1 sequence (Q8WUI4 whole entry): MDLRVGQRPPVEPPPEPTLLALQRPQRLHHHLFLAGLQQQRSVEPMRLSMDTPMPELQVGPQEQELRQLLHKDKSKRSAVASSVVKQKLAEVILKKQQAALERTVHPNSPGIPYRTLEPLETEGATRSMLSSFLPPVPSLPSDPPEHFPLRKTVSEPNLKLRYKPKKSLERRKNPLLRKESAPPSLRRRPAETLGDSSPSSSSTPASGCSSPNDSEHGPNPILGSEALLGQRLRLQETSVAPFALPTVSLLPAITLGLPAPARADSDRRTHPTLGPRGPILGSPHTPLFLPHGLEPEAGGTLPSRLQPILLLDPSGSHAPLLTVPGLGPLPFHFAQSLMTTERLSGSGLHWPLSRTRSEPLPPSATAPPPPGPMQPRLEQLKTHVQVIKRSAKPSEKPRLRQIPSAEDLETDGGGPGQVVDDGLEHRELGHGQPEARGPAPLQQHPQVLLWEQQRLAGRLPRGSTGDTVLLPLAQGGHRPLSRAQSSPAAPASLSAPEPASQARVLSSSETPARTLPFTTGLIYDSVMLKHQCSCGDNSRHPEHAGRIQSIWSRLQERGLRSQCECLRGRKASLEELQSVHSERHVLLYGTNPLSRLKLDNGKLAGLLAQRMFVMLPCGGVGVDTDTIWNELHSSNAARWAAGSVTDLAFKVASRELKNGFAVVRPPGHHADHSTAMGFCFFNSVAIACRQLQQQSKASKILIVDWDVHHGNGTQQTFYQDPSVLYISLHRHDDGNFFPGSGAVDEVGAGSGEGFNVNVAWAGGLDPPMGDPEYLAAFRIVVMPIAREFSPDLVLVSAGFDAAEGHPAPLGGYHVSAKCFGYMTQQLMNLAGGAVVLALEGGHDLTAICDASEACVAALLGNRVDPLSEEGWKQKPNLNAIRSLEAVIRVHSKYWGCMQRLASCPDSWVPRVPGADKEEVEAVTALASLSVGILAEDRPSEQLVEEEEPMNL

[2] = molecular target: T2, Histone deacetylase 8 (Homo sapiens, UniProt Q9BY41); experiment: Inhibition of HDAC8 (unknown origin)
T2 sequence (Q9BY41 whole entry): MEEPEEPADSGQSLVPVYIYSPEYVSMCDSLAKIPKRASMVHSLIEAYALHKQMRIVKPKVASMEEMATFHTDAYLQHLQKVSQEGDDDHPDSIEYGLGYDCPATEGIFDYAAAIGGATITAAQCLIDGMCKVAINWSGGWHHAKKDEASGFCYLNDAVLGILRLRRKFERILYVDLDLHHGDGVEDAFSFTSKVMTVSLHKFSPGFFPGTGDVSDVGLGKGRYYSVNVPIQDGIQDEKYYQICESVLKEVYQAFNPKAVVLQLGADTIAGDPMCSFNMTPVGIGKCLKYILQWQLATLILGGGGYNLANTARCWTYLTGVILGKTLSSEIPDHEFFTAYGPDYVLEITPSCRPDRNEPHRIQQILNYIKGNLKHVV

[3] = molecular target: Histone deacetylase 1 (Homo sapiens, UniProt Q13547); experiment: Inhibition of HDAC1 (unknown origin)
[4] = molecular target: Histone deacetylase 2 (Homo sapiens, UniProt Q92769); experiment: Inhibition of HDAC2 (unknown origin)
[5] = molecular target: Histone deacetylase 4 (Homo sapiens, UniProt P56524); experiment: Inhibition of HDAC4 (unknown origin)
Histone deacetylase 4, sequence (P56524 whole entry): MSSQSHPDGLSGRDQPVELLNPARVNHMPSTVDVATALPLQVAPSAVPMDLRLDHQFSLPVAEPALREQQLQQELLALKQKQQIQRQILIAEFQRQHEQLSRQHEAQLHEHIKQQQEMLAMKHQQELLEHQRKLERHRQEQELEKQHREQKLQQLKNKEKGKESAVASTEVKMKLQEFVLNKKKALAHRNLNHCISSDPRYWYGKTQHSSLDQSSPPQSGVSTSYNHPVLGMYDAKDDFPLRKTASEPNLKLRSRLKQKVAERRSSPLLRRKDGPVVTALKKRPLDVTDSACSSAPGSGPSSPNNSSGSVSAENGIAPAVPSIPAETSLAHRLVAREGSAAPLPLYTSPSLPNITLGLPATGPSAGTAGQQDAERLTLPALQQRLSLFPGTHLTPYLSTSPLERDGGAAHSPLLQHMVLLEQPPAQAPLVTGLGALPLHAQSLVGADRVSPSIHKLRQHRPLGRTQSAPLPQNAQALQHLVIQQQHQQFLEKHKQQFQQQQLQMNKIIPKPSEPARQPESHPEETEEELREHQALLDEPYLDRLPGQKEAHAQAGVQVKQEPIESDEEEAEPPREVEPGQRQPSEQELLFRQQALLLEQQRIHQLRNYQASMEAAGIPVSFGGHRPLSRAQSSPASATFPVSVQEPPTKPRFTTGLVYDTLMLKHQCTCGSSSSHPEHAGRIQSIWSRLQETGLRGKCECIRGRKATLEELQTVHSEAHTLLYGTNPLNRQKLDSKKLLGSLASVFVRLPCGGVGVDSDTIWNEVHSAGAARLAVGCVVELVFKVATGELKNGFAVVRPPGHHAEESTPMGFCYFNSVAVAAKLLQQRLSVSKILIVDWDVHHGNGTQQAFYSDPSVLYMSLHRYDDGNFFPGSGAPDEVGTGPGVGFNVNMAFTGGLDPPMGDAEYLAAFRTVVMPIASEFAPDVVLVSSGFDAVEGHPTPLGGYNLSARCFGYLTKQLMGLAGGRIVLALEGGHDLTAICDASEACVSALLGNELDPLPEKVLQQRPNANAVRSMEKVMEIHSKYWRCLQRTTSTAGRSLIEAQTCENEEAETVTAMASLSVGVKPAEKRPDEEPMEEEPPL

Histone deacetylase 1, sequence (Q13547 whole entry): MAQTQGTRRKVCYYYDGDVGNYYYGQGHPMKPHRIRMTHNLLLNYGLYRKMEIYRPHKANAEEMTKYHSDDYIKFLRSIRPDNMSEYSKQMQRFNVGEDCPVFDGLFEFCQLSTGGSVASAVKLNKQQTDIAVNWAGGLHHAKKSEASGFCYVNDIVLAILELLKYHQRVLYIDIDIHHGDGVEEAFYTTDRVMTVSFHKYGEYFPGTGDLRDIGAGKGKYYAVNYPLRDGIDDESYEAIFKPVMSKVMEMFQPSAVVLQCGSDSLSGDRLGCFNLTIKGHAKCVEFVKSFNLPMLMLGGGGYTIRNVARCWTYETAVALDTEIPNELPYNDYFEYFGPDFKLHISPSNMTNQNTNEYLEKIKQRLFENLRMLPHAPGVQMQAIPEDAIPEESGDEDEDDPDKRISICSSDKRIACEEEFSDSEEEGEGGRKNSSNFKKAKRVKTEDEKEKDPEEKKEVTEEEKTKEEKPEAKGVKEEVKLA
Histone deacetylase 2, sequence (Q92769 whole entry): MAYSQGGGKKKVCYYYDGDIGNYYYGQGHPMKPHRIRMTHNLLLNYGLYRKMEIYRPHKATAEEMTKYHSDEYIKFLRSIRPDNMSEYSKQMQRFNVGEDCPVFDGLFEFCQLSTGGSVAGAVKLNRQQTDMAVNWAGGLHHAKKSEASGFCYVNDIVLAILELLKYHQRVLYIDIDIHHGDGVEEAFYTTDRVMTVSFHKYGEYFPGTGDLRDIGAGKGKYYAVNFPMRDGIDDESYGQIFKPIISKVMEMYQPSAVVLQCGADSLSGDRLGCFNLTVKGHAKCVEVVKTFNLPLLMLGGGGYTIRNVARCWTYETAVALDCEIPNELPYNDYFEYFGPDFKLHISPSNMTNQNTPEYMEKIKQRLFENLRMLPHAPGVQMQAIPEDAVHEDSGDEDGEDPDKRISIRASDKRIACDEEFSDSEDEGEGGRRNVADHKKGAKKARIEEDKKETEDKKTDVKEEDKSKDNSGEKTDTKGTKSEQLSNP

With `O=C(NO)c1ccc(CN2c3ccccc3[S+]([O-])C[C@H]3CCCC[C@H]32)cc1` (stereo not given in full) the IC50 [1] was > 30 µM, the IC50 [2] was 2.9 µM and the IC50 [3] was 4.9 µM. For the same molecule, the IC50 [4] was 26 µM and the IC50 [5] was > 30 µM.
